Reference: ChEMBL document CHEMBL5506011, “Discovery of novel and selective farnesoid X receptor antagonists through structure-based virtual screening, preliminary structure-activity relationship study, and biological evaluation” (Eur J Med Chem, 2024)

Tests used:
Assay type in all cases: organism-based
[1] = Toxicity in male C57BL/6 mouse assessed as aspartate transaminase (AST) level in serum at 20 to 40 mg/kg, po measured after 4 days; conditions: in vivo, 96 h, dose 20-40 mg/kg, time 4 day
[2] = Toxicity in male C57BL/6 mouse assessed as aspartate transaminase (AST) level in serum at 20 mg/kg, ip measured after 4 days; conditions: in vivo, 96 h, time 4 day
[3] = Toxicity in male C57BL/6 mouse assessed as total bile acid level in serum at 20 mg/kg, ip measured after 4 days; conditions: in vivo, 96 h, time 4 day
[4] = Toxicity in male C57BL/6 mouse assessed as alanine transaminase (ALT) level in serum at 20 mg/kg, ip measured after 4 days; conditions: in vivo, 96 h, time 4 day
[5] = Toxicity in male C57BL/6 mouse assessed as total bile acid level in serum at 20 to 40 mg/kg, po measured after 4 days; conditions: in vivo, 96 h, dose 20-40 mg/kg, time 4 day

Measured: Activity

Cc1ccc(C)c(OCCCC(C)(C)C(=O)NCC(=O)c2ccc(O)cc2)c1
Non-Toxic: all assays above
